Bounds are passed on as bounds.

In a melting point compilation (Tetko et al.; mined from patent text by program, amines drawn as free bases though some values may be those of a salt) one finds melting point data, which are given here for 87 molecules.

The melting point is the temperature, or range, at which the solid turns liquid. For the molecule `CN(Cc1ccco1)Cn1cc(C#N)c(-c2cccc(Cl)c2Cl)c1`, the melting point fell in the range of 79 to 80 °C.
In the case of `Cc1cc(-c2nnn(C)n2)cc(C)c1OCCCn1ncnc1C` it was 126 to 128 °C.
`O=C(O)C=Cc1ccc(O)c(Cl)c1`: the melting point was 180 to 182 °C.
With `COc1ccc(C(=O)Nc2ccccc2)cc1NC(=S)Nc1cccc(C)c1`, the melting point fell in the range of 168 to 171 °C.
In turn, `CCC(Cl)(CC)C(CO)N=O` (configuration not stated) yielded a melting point of 130 °C.
In the case of `Cc1nc(-c2ccccc2)c(CC(C)(C)C(=O)O)o1` it was 129 to 130 °C.
`COC(=O)C(C)(C)CCCOc1cc(C)c(NC(=O)C(C)(C)CCCOc2cc(C)ccc2C)cc1C` had a melting point of 60 to 62 °C.
In the case of `CNC(=C[N+](=O)[O-])NCCN1CCC(C(=O)c2ccc(F)cc2)CC1` it was 157 to 159 °C; in that of `CCOC(=O)C(=O)c1ccc(OCC(=O)N2CCOCC2)cc1`, 103 to 106 °C; in that of `CN(c1cccc2cc(-c3nccs3)[nH]c12)S(=O)(=O)c1ccsc1C(=O)N1CCOCC1`, 190 °C.
In the case of `Cc1c(-c2ccc(O)cc2)sc(C=O)c1-c1ccc(O)c(Cl)c1` it was 234 to 236 °C; in that of `Cc1cccc(C(=O)NCc2cccc3c2C(=O)N(C2CCC(=O)NC2=O)C3=O)n1` (configuration not stated), 197 to 199 °C; in that of `CCC1c2cccn2-c2ccc(C(F)(F)F)cc2N1S(=O)(=O)c1ccc(OC)c(Cl)c1` (configuration not stated), 126 to 129 °C.
In the case of `CC1CCc2c(C#N)ccc3c(=O)c(C(=O)O)cn1c23` (configuration not stated) it was 300 °C.
Turning to `CC(=O)OCC1OC(n2c(Cl)nc3cc(Cl)c(Cl)cc32)C(O)C1O` (configuration not stated), the melting point is 82 to 87 °C.
For the molecule `CC(=O)Nc1ccc(OCCOC(=O)CCCNC(=O)c2cc(OCc3ccccc3)ccc2OCc2ccccc2)cc1`, the melting point is 141 to 143 °C.
In the case of `Cn1cc(-c2ccc3nc(NC(=O)c4ccc(C(C)(C)C)cc4)cn3n2)cn1` it was 245 to 246 °C; in that of `CCOC(=O)[C@H](CCC1CCCCC1)N[C@@H]1COc2ccccc2N(Cc2ccc(C(C)C)cc2)C1=O`, 80 °C.
In the case of `Nc1nc(NCC(c2ccccc2)c2ccccc2)c2ncn(C3OC(CO)C(O)C3O)c2n1` (configuration not stated) it was 134 to 137 °C; in that of `O=C1OC(=O)c2nc3ccccc3cc21`, 225 to 228 °C.
In the case of `CCCCCCCCNC(=O)Cc1c(C)cc(C(C)(C)C)c(O)c1C` it was 101 to 104 °C.
The molecule `CC(=O)N1CCc2ccc(Cl)cc2C(c2ccc([N+](=O)[O-])cc2)=N1` yielded a melting point of 227 to 229 °C.
`Cc1ccccc1C(=O)n1ccc(-c2ccc(C(=O)N3Cc4cccn4Cc4ccccc43)cc2)n1` returned a melting point of 170 to 173 °C.
`N#Cc1cc2c(cc1C(F)(F)F)[nH]c(=O)c(=O)n2OCC(=O)O` had a melting point of 257 °C.
For `COC(=O)c1ccc(OCCNC(=O)c2ccc(Cl)cc2)cc1`, the melting point lay in the range of 125 to 127 °C.
In the case of `CC1(C)C(=O)C(C)(C)c2cc([N+](=O)[O-])c([N+](=O)[O-])cc21` it was 212 to 218 °C.
In the case of `N#CC1OC(=O)c2c(F)ccc(F)c21` (configuration not stated) it was 87 to 89 °C; in that of `FC(F)(F)CNC(=S)NCC(F)(F)F`, 152 to 153 °C; in that of `CC(C)Oc1cc([N+](=O)[O-])c(F)cc1C#N`, 116 to 118 °C.
With `Cc1noc2cc3c(cc12)C1(CO3)C(=O)N(CC2CCCO2)c2ccccc21` (configuration not stated), the melting point was in the range of 134 to 135 °C.
With `O=C1N=C2C=CC=CN2C1(Cc1ccccc1)Cc1ccc(F)cc1` (configuration not stated), the melting point is more than 300 °C.
In the case of `Cc1ccc2c(c1)cc(Cc1ccc(C(=O)O)cc1)n2S(=O)(=O)c1cccc(C(C)(C)C)c1` it was 161 °C; in that of `CS(=O)(=O)N(CCO)c1c(Cl)c(C(F)(F)F)cc2[nH]c(=O)c(=O)[nH]c12`, 292 to 294 °C; in that of `CCCN(CCSc1nc(-c2ccccc2)c(-c2ccccc2)[nH]1)C(=O)Nc1ccc(F)cc1F`, 189 to 190 °C.
As to `CSc1nc(P(=O)(c2ccccc2)c2ccccc2)cc(P(=O)(c2ccccc2)c2ccccc2)n1`, the melting point fell in the range of 221 to 222 °C.
In the case of `COCc1c(-c2cc(C)no2)ncc2[nH]c3ccc(OCc4ccccc4)cc3c12`, the melting point was in the range of 202 to 203 °C.
In the case of `CC1=CC(=O)C=CC1(C)C(Cl)(Cl)Cl` (configuration not stated) it was 57 °C; in that of `COC(=O)[C@@H]1C[C@H](N=[N+]=[N-])C(=O)[C@H]2[C@@]1(C)CC[C@H]1C(=O)O[C@H](c3ccoc3)C[C@]21C`, 200 to 203 °C; in that of `CC(C)(C)Oc1ccc2c(c1)Oc1ccccc1S2(=O)=O`, 108 to 110 °C.
`CCCc1c(OCCCOc2cc(NC(=O)C(=O)O)c(C)cc2Cl)ccc(C(C)=O)c1O` had a melting point of 188 to 189 °C.
In the case of `CNC(=O)c1c(O)c(=O)cc(C)n1C` it was more than 250 °C.
In turn, `O=C(O)CN1C(=O)C(=Cc2c[nH]c3ccc(Cl)cc23)SC1=S` yielded a melting point of 278 to 282 °C.
Molecule `CCOC(=O)C1=Cc2cc(-c3ccc(C)cc3)ccc2OC1C` (configuration not stated) came in with a melting point of 82 to 84 °C.
Molecule `COCCNC(=O)c1cc2c(nc(C)n2C)c2c1CCC1(Cc3ccccc3C1)N2` gave a melting point of 186 to 187 °C.
Turning to `CC(=O)C(Cc1cccc(Br)c1)NC(=O)c1ccc(C)cc1` (configuration not stated), the melting point was in the range of 106 to 107 °C.
In the case of `Cc1ccc2c(c1)S(=O)(=O)NCN2CCF` it was 88 to 90 °C; in that of `O=C(NC(=O)c1c(F)cccc1F)Nc1ccc(-c2ccc(Cl)cc2)cn1`, 229 to 234 °C; in that of `COCCOc1cc2ncnc(NC3=CC(=O)C(N(C)c4ccc(OC)cc4)=CC3=O)c2cc1OC`, 197 to 198 °C.
The molecule `COc1cc2ncc(C#N)c(Nc3ccc(Cl)c4ccccc34)c2cc1OC` registered a melting point of more than 250 °C.
In the case of `CC(=O)N(O)C(C)c1cn(C)c2ccccc12` (configuration not stated) it was 106 to 108 °C; in that of `CCOc1ccc(-c2nc(-c3cc(C(=O)O)ccn3)cs2)cc1OCC`, 236 to 237 °C.
As to `CCOC(OCC)C(C#N)(C=O)Cc1cc(OC)c(OC)c(OC)c1` (configuration not stated), the melting point fell in the range of 109 to 115 °C.
In the case of `O=C(O)CCCn1nc(-c2c(-c3ccccc3)nn3ccccc23)ccc1=O` it was 240 °C; in that of `Cc1cc(C(C)(C)C)c(OP2OCCN2C(C)(C)C)c(C(C)(C)C)c1` (configuration not stated), 105 to 107 °C; in that of `CCN(CC)c1ccc(C2(c3ccc(N(CC)CC)cc3N(CC)CC)OC(=O)c3ccccc32)c(Cl)c1` (configuration not stated), 141 to 143 °C.
`CC(C)(C)CN1C(=O)[C@@H](CC=O)O[C@H](c2ccccc2Cl)c2cc(Cl)ccc21` (relative stereo) returned a melting point of 173 to 176 °C.
On to `Cc1[nH]cnc1/C=C1\CCc2c(c3cccc4c3n2CCC4)C1=O`, for which the melting point was 260 to 264 °C.
In the case of `CCOC(=O)c1ccc(-c2nc3ccc(C)cn3c2CNC(=O)CC(C)C)cc1` it was 230 to 231 °C; in that of `O=[N+]([O-])c1ccc(F)cc1Nc1ccc(F)cc1`, 115 to 116 °C; in that of `COCCOc1ccc(C=O)c(OCc2ccccc2)c1`, 67.5 to 68 °C.
`CC(C)C(=O)c1[nH]c(C(CC2CCCC2)c2ccc(S(C)(=O)=O)cc2)nc1F` (configuration not stated) returned a melting point of 161 to 162 °C.
In the case of `Nc1ccc(NC(=O)Nc2cccc(C(F)(F)F)c2)c(O)c1` it was 200 to 202 °C; in that of `CN1C(=O)CN(c2cccc(Cl)c2)NC1=O`, 178 to 180 °C.
Regarding `O=C(O)c1ccc(-c2ccc3c(c2)CCN(CCN2CCCC2)C3)cc1`, the melting point fell in the range of 269 to 271 °C.
In the case of `COc1cc2ncnc(N3CCN(C(=O)NCc4ccsc4)CC3)c2cc1OC` it was 178 to 179 °C; in that of `COc1cc(COc2nn(-c3ccccc3)cc2C(C[N+](=O)[O-])C[N+](=O)[O-])ccc1OCc1nc(-c2ccco2)oc1C`, 126 to 127 °C; in that of `Cc1ccc2c3c(ccc2n1)OCC(CN1C2CCC1CC(O)(c1ccccc1)C2)O3` (configuration not stated), 162 to 165 °C.
`O=C1Cc2c(ccc3c2OC(CNCc2ccccc2)CC3)N1` (configuration not stated) displayed a melting point of 128 °C.
Consider `O=c1cc(-c2ccccc2)oc2c(C=S)cccc12`, for which the melting point fell in the range of 153 to 157 °C.
`COc1ccc2c(c1)C(=O)CC1C2CCC2(C)C(O[Si](C)(C)C(C)(C)C)CCC12` (configuration not stated): the melting point was in the range of 159 to 160 °C.
In the case of `O=C(NCCN1CCOCC1)c1ccc2nonc2c1` it was 145 to 148 °C.
In the case of `Cc1cc(SC2=C(O)CC(CCc3ccc(O)cc3)(C3CCCC3)OC2=O)c(C(C)(C)C)cc1CO` (configuration not stated) it was 199 to 201 °C; in that of `CC(C)(C#N)c1cc(Cn2ccnc2)cc(C(N)=O)c1`, 149 to 150 °C.
Turning to `CC(C)S(=O)(=O)NC[C@@H](C)c1ccc(-c2ccc3c(c2)CC(=O)N3)cc1`, the melting point lay within 170 to 171 °C.
`CCC(O)C#Cc1ccc2c(=O)c(-c3ncc[nH]3)c(N)n(CC3CC3)c2n1` (configuration not stated): the melting point came to 252 °C.
In the case of `O=C(O)c1cccc(C(=O)NCc2ccc(F)c(-c3cccc(CO)c3)c2)c1` it was 169 to 171 °C; in that of `CCOC(=O)C1=C2NC=C(C(N)=O)C(=O)N2C(C)CC1` (configuration not stated), 251 °C; in that of `O=c1cc(CCO)c2ccccc2[nH]1`, 213 to 215 °C.
In the case of `CC(C)(C)c1ccc([N+]([O-])=S)cc1` it was 40 to 43 °C.
As to `Cc1nc(-n2cnn(CC3CC3(F)F)c2=O)sc1C(N)=O` (configuration not stated), the melting point was 273 to 275 °C.
In the case of `CC(N1CCN(c2ncnn2Cc2ccc(C(C)(C)C)cc2)CC1)C(O)(Cn1cncn1)c1ccc(F)cc1F` (configuration not stated) it was 73 to 75 °C; in that of `CCCn1c(=O)c2[nH]c(/C=C/c3ccc(OC)c4ccccc34)nc2n(CCC)c1=O`, more than 280 °C.
In the case of `COC(=O)C(=Cc1cccc(-c2ccc(Cl)cc2)c1)NC(C)=O` it was 168 °C.
Regarding `O=C1CCNC(=O)C1C(=O)c1ccc(Cl)c(Cl)c1` (configuration not stated), the melting point was in the range of 172 to 174 °C.
`CC1(C)C(c2cccs2)=NN=C1c1cccs1` showed a melting point of 153 to 156 °C.
Regarding `Cc1cc(C)c(Nc2nc(C)ccc2S(=O)(=O)c2ccc(OCc3csc(C)n3)cc2)c(C)c1`, the melting point is 200 to 201 °C.
In the case of `COc1cc(OC)nc(Oc2cccc(Cl)c2C(=O)O)n1` it was 123 to 126 °C.
